Source: US20090004106A1, “Radioligands for the 5 -Ht1b Receptor” (priority 2006, published 2009)

Test system: 5-HT1B receptor
Assay: PET measurements in monkeys (radioligand brain uptake and 5-HT1B receptor binding)
Assay type: in vivo, Cynomolgus monkey
Protocol: Cynomolgus monkey can be used to determine the suitability of [^11C] labeled raidoligands as a radioligand for PET-determination of 5HT^1B-receptor binding and occupancy. Anaesthesia can be induced and maintained by repeated intramuscular injections of a mixture of ketamine (3-4 mg/kg per h Ketalar, Parke-Davis) and xylazine hydrochloride (1-2 mg/kg per h Rompun® Vet., Bayer, Sweden) for the duration of each measurement. A fixation device can be used for the positioning of the monkey head during the PET-measurements. Body temperature can be controlled by Bair Hugger—Model 505 (Arizant Healthcare Inc, MN).
Radioactivity in the brain can be measured with the Siemens ECAT Exact HR47 system that can be used in the three-dimensional model. The system covers an axial distance of 15 cm. The transaxial resolution of the reconstructed images is about 3.8 mm full width at half-maximum (FWHM) and the axial resolution 4.0 mm FWHM. […]
In each PET-measurement a sterile physiological phosphate buffer (pH=7.4) solution containing about 1.4 mCi (50 MBq) of [^11C] labeled compound can be injected as a bolus into a sural vein during 2 s with simultaneous start of PET-data acquisition. Radioactivity in brain can be measured continuously for 93 minutes according to a pre-programmed series of 15 frames starting immediately after IV injection of [^11C] labeled compound. […]
During all PET measurements venous blood samples (about 0.5 ml) can be taken at 4 time points (at about 4, 15, 30 and 45 minutes) and plasma radioactivity concentration determined in a well counter, cross-calibrated with the camera. […]
The ROIs can be drawn on the PET summation images representing radioactivity measured from 9 minutes after intravenous injection to the end of the measurement. […] Radioactivity is calculated for the sequence of time frames, corrected for the radioactivity decay, and plotted versus time. For each region a time-activity curve can be generated and radioactivity expressed as nCi/ml. […]

Substance: [^11C] 8-(4-methylpiperazin-1-yl)-5-methylchrom-2-en-4-one-2-(4-morpholinophenyl)carboxamide) [Example 3]
- specific binding to the areas of interest (primate brain PET, non specific defined as cerebellum): binds specifically to the areas of interest
- specific to non-specific ratios (primate brain PET, ratio of ROI to cerebellum (non specific defined as cerebellum)): high enough specific to non-specific ratios
- entry of radioligand into brain (primate brain, PET, IV bolus of [11C] labeled compound): rapidly entered the primate brain
